Measurements as given in PubChem BioAssay (NCI).
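These data come from cells grown in 96-well plates and exposed to compound for 48 hours at five concentrations. GI50: concentration for 50% inhibition of growth. TGI marks complete inhibition of growth.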

Assays:
Test in all cases: DTP human tumour cell line panel, 48 h
SK-MEL-28 melanoma = test system: SK-MEL-28 melanoma
HCT-15 colon = test system: HCT-15 colon
IGROV1 ovarian = test system: IGROV1 ovarian
MALME-3M melanoma = test system: MALME-3M melanoma
NCI-H23 lung = test system: NCI-H23 lung
HCT-116 colon = test system: HCT-116 colon
SNB-19 CNS = test system: SNB-19 CNS
SK-OV-3 ovarian = test system: SK-OV-3 ovarian
BT-549 breast = test system: BT-549 breast
A549 NSCLC = test system: A549 NSCLC

Q: Which GI50 (SK-MEL-28 melanoma) does the source give for `O=C(NCCO)Nc1ccc(-c2nc(N3CCOCC3)c3cccn3n2)cc1` here?
A: 108 nM

Q: And the TGI (SK-MEL-28 melanoma)?
A: 4.59 µM

Q: And the GI50 (HCT-15 colon)?
A: 359 nM

Q: And the TGI (HCT-15 colon)?
A: > 100 µM

Q: And the GI50 (IGROV1 ovarian)?
A: 167 nM

Q: What about the TGI (IGROV1 ovarian) of the same compound?
A: 1080 nM

Q: What about the TGI (MALME-3M melanoma) of the same compound?
A: 50.6 nM

Q: And the GI50 (NCI-H23 lung)?
A: 239 nM

Q: What about the TGI (NCI-H23 lung) of the same compound?
A: > 100 µM

Q: And the GI50 (HCT-116 colon)?
A: 1850 nM

Q: And the TGI (HCT-116 colon)?
A: > 100 µM

Q: What about the GI50 (SNB-19 CNS) of the same compound?
A: 2140 nM

Q: And the TGI (SNB-19 CNS)?
A: > 100 µM

Q: And the GI50 (SK-OV-3 ovarian)?
A: 60.2 nM

Q: And the TGI (SK-OV-3 ovarian)?
A: 291 nM

Q: And the GI50 (BT-549 breast)?
A: 72.9 nM

Q: And the TGI (BT-549 breast)?
A: 3.6 µM

Q: What about the GI50 (A549 NSCLC) of the same compound?
A: 2070 nM

Q: And the TGI (A549 NSCLC)?
A: 18.3 µM
